Data: patent US11542304B2, “Multimeric bicyclic peptide ligands” (BicycleTx Limited, priority 2018, dated 2023)

Target: CD137 (Homo sapiens, UniProt Q07011)
Test: CD137 Promega reporter cell activity assay (NF-κB luciferase in Jurkat cells)
Settings: for Average Fold EC50 Improvement relative to CD137L: Average EC50 for CD137L = 14.2 nM; for Average Relative Fold Induction relative to CD137L: Average fold induction for CD137L = 4.0

CD137, sequence (Q07011 24-255): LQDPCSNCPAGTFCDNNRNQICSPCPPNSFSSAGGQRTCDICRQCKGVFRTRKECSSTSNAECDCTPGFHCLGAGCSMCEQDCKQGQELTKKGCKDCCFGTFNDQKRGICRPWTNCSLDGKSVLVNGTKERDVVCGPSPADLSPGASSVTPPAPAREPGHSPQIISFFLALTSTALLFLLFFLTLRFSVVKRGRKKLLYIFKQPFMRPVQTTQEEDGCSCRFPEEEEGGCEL

CCCC[C@@H]1NC(=O)[C@H](Cc2ccc(O)cc2)NC(=O)[C@@H]2CCCN2C(=O)[C@H](CC(=O)O)NC(=O)[C@H](C)NC(=O)[C@H](CCCCNC(=O)OCC2C3CCc4nnn(CCOCCOCCOCCOCCOCCOCCOCCOCCOCCOCCOCCOCCOCCOCCOCCOCCOCCOCCOCCOCCOCCOCCOCCNC(=O)CCOCC(COCCC(=O)NCCOCCOCCOCCOCCOCCOCCOCCOCCOCCOCCOCCOCCOCCOCCOCCOCCOCCOCCOCCOCCOCCOCCOCCn5nnc6c5CCC5C(CC6)C5COC(=O)NCCCC[C@@H]5NC(=O)[C@@H]6CSCCC(=O)N7CN(CN(C7)C(=O)CCSC[C@@H](C(=O)N[C@@H](C)C(N)=O)NC(=O)[C@H](CCCC)NC(=O)[C@H](Cc7ccc(O)cc7)NC(=O)[C@@H]7CCCN7C(=O)[C@H](CC(=O)O)NC(=O)[C@H](C)NC5=O)C(=O)CCSC[C@H](NC(=O)[C@H](C)NC(C)=O)C(=O)N[C@@H]([C@@H](C)CC)C(=O)N[C@@H](CCC(=O)O)C(=O)N[C@@H](CCC(=O)O)C(=O)NCC(=O)N[C@@H](CCC(N)=O)C(=O)N[C@@H](Cc5ccc(O)cc5)C(=O)N6)(COCCC(=O)NCCOCCOCCOCCOCCOCCOCCOCCOCCOCCOCCOCCOCCOCCOCCOCCOCCOCCOCCOCCOCCOCCOCCOCCn5nnc6c5CCC5C(CC6)C5COC(=O)NCCCC[C@@H]5NC(=O)[C@@H]6CSCCC(=O)N7CN(CN(C7)C(=O)CCSC[C@@H](C(=O)N[C@@H](C)C(N)=O)NC(=O)[C@H](CCCC)NC(=O)[C@H](Cc7ccc(O)cc7)NC(=O)[C@@H]7CCCN7C(=O)[C@H](CC(=O)O)NC(=O)[C@H](C)NC5=O)C(=O)CCSC[C@H](NC(=O)[C@H](C)NC(C)=O)C(=O)N[C@@H]([C@@H](C)CC)C(=O)N[C@@H](CCC(=O)O)C(=O)N[C@@H](CCC(=O)O)C(=O)NCC(=O)N[C@@H](CCC(N)=O)C(=O)N[C@@H](Cc5ccc(O)cc5)C(=O)N6)COCCC(=O)NCCOCCOCCOCCOCCOCCOCCOCCOCCOCCOCCOCCOCCOCCOCCOCCOCCOCCOCCOCCOCCOCCOCCOCCn5nnc6c5CCC5C(CC6)C5COC(=O)NCCCC[C@@H]5NC(=O)[C@@H]6CSCCC(=O)N7CN(CN(C7)C(=O)CCSC[C@@H](C(=O)N[C@@H](C)C(N)=O)NC(=O)[C@H](CCCC)NC(=O)[C@H](Cc7ccc(O)cc7)NC(=O)[C@@H]7CCCN7C(=O)[C@H](CC(=O)O)NC(=O)[C@H](C)NC5=O)C(=O)CCSC[C@H](NC(=O)[C@H](C)NC(C)=O)C(=O)N[C@@H]([C@@H](C)CC)C(=O)N[C@@H](CCC(=O)O)C(=O)N[C@@H](CCC(=O)O)C(=O)NCC(=O)N[C@@H](CCC(N)=O)C(=O)N[C@@H](Cc5ccc(O)cc5)C(=O)N6)c4CCC32)NC(=O)[C@@H]2CSCCC(=O)N3CN(CN(C3)C(=O)CCSC[C@@H](C(=O)N[C@@H](C)C(N)=O)NC1=O)C(=O)CCSC[C@H](NC(=O)[C@H](C)NC(C)=O)C(=O)N[C@@H]([C@@H](C)CC)C(=O)N[C@@H](CCC(=O)O)C(=O)N[C@@H](CCC(=O)O)C(=O)NCC(=O)N[C@@H](CCC(N)=O)C(=O)N[C@@H](Cc1ccc(O)cc1)C(=O)N2 (stereo partly shown) [BCY8148]
Average Fold EC50 Improvement relative to CD137L: 18.71
Average Relative Fold Induction relative to CD137L: 1.20

CCCC[C@@H]1NC(=O)[C@H](Cc2ccc(O)cc2)NC(=O)[C@@H]2CCCN2C(=O)[C@H](CC(=O)O)NC(=O)[C@H](C)NC(=O)[C@H](Cc2ccccc2)NC(=O)[C@@H]2CSCCC(=O)N3CN(CN(C3)C(=O)CCSC[C@@H](C(=O)N[C@@H](C)C(N)=O)NC1=O)C(=O)CCSC[C@H](NC(=O)[C@H](C)NC(=O)OCC1C3CCc4nnn(CCOCCOCCOCCOCCOCCOCCOCCOCCOCCOCCOCCOCCOCCOCCOCCOCCOCCOCCOCCOCCOCCOCCOCCNC(=O)CCOCC(COCCC(=O)NCCOCCOCCOCCOCCOCCOCCOCCOCCOCCOCCOCCOCCOCCOCCOCCOCCOCCOCCOCCOCCOCCOCCOCCn5nnc6c5CCC5C(CC6)C5COC(=O)N[C@@H](C)C(=O)N[C@H]5CSCCC(=O)N6CN7CN(C6)C(=O)CCSC[C@H](NC(=O)[C@H](Cc6ccc(O)cc6)NC(=O)[C@H](CCC(N)=O)NC(=O)CNC(=O)[C@H](CCC(=O)O)NC(=O)[C@H](CCC(=O)O)NC(=O)[C@H]([C@@H](C)CC)NC5=O)C(=O)N[C@@H](Cc5ccccc5)C(=O)N[C@@H](C)C(=O)N[C@@H](CC(=O)O)C(=O)N5CCC[C@H]5C(=O)N[C@@H](Cc5ccc(O)cc5)C(=O)N[C@@H](CCCC)C(=O)N[C@H](C(=O)N[C@@H](C)C(N)=O)CSCCC7=O)(COCCC(=O)NCCOCCOCCOCCOCCOCCOCCOCCOCCOCCOCCOCCOCCOCCOCCOCCOCCOCCOCCOCCOCCOCCOCCOCCn5nnc6c5CCC5C(CC6)C5COC(=O)N[C@@H](C)C(=O)N[C@H]5CSCCC(=O)N6CN7CN(C6)C(=O)CCSC[C@H](NC(=O)[C@H](Cc6ccc(O)cc6)NC(=O)[C@H](CCC(N)=O)NC(=O)CNC(=O)[C@H](CCC(=O)O)NC(=O)[C@H](CCC(=O)O)NC(=O)[C@H]([C@@H](C)CC)NC5=O)C(=O)N[C@@H](Cc5ccccc5)C(=O)N[C@@H](C)C(=O)N[C@@H](CC(=O)O)C(=O)N5CCC[C@H]5C(=O)N[C@@H](Cc5ccc(O)cc5)C(=O)N[C@@H](CCCC)C(=O)N[C@H](C(=O)N[C@@H](C)C(N)=O)CSCCC7=O)COCCC(=O)NCCOCCOCCOCCOCCOCCOCCOCCOCCOCCOCCOCCOCCOCCOCCOCCOCCOCCOCCOCCOCCOCCOCCOCCn5nnc6c5CCC5C(CC6)C5COC(=O)N[C@@H](C)C(=O)N[C@H]5CSCCC(=O)N6CN7CN(C6)C(=O)CCSC[C@H](NC(=O)[C@H](Cc6ccc(O)cc6)NC(=O)[C@H](CCC(N)=O)NC(=O)CNC(=O)[C@H](CCC(=O)O)NC(=O)[C@H](CCC(=O)O)NC(=O)[C@H]([C@@H](C)CC)NC5=O)C(=O)N[C@@H](Cc5ccccc5)C(=O)N[C@@H](C)C(=O)N[C@@H](CC(=O)O)C(=O)N5CCC[C@H]5C(=O)N[C@@H](Cc5ccc(O)cc5)C(=O)N[C@@H](CCCC)C(=O)N[C@H](C(=O)N[C@@H](C)C(N)=O)CSCCC7=O)c4CCC31)C(=O)N[C@@H]([C@@H](C)CC)C(=O)N[C@@H](CCC(=O)O)C(=O)N[C@@H](CCC(=O)O)C(=O)NCC(=O)N[C@@H](CCC(N)=O)C(=O)N[C@@H](Cc1ccc(O)cc1)C(=O)N2 (stereo partly shown) [BCY8149]
Average Fold EC50 Improvement relative to CD137L: 140.06
Average Relative Fold Induction relative to CD137L: 0.93
